The source of these data is paper PMC12595617, “Investigating the potential role of metabolic resistance genes in conferring cross-resistance to pyrethroids and polycyclic aromatic hydrocarbon pollutants in the major malaria vector Anopheles coluzzii” (BMC Genomics, 2025).

“And” between values parts separate entries of the source, which are not always exact repeats. Identical values can stand only once. Like-named read-outs stand apart in the source and are kept apart here.

The subject of series [1] is Auyo microsomes. The series can be described thus: Fluorene turnover assay using microsomes. It counts as in vitro ADME, Anopheles coluzzii. Conditions: fluorene 30 µM, run time 15-150 min. The protocol:
Because of the higher percentage of depletion observed in the Auyo microsomal metabolism of fluorene, it was chosen to be analysed further for its turnover and kinetic studies. To understand the turnover rates of the fluorene depletions, reaction run time was varied between 15 and 150 min. Specific points used were 15, 30, 45, 60, 90, 120 and 150 min while the fluorene concentration was maintained at 30 µM in all these time points.

For a further series, the system named is Auyo microsomal P450. The experiment in a line: in vitro. The series is classed as in vitro ADME, Anopheles coluzzii. The protocol: For the determination of steady-state kinetic parameters, assays were conducted for 30 min with 0.05 µM microsomal P450 while varying the concentrations of fluorene (0–600 µM). Kinetics plot of velocity against the substrate concentrations was made using the least squares non-linear regression in GraphPad Prism 6.03 Software (GraphPad Inc., La Jolla, CA, USA) that fits into the canonical Michaelis-Menten model as previously described for pyrethroid insecticides.

The next series concerns recombinant CYP6Z2. On the procedure: (§1) The recombinant P450s used in this study were acquired from the enzyme characterization group (ECG) leader, Dr. Mark J.I. Paine of the Vector Biology Department, Liverpool School of Tropical Medicine. All the P450s were expressed from field-resistant populations of An. gambiae except for CYP6P9a, which was expressed from An. funestus. The heterologous expression of the P450s was conducted according to the previously described approaches. Briefly, P450s were expressed by using ompA and pelB signal sequences to direct P450 and An. gambiae CPR (AgCPR), respectively, to the inner membrane of E. coli a functional monooxygenase. The P450 sequences were amplified from cDNA and fused to the ompA signal peptides in simple PCR reactions. This is followed by ligation of the digested fragments into linearized expression vector pCWori+, thereby creating a construct pB13:ompA + 2-P450. Competent JM109 cells were co-transformed with plasmids pB13:ompA + 2-P450 and pACYC-AgCPR for the expression of functional P450 and An. gambiae CPR, respectively. Colonies carrying the two plasmids as confirmed by the colony PCR are used for a 12–14 h starter culture overnight. Typically, 0.2 L cultures were supplemented with 2 mL from the starter cultures and incubated at 37 °C and 200 rpm shaking while the absorbance at 600 nm was being monitored. When the OD reached 0.6–0.8, the cultures were cooled down to 25 °C for 30 min with shaking at 150 rpm. Induction with 1 mM isopropyl β-D-1-thiogalactopyranoside (IPTG) and 0.5 mM 5-aminolaevulinic acid (ALA) was conducted. Determinations of the P450 content and CPR activity were conducted using the procedure of [61] and [60], respectively.
(§2) To compare the metabolic activity of the microsomes and the recombinant cytochrome P450s towards PAH metabolism assays were conducted side by side as described earlier. The NADPH regeneration mixture (consisting of 0.1 M NADP+, 50mM potassium phosphate buffer, pH 7.4, 1 mM glucose-6-phosphate, 0.25 mM magnesium chloride and 1U/ml glucose-6-phosphate dehydrogenase) was used in the positive replicates. For the negatives, the same buffer with no added NADP + was used. Enzyme-buffer mix comprised of 0.05 µM recombinant P450 or microsome, 0.4 µM cytochrome b5, 50 mM potassium phosphate buffer pH 7.4 and 20 µM of the PAH substrates. To initiate the reactions, regeneration mixture was added to the enzyme-buffer mix in a 1:1 ratio (total of 200 µl) following activation for 5 min at 30 °C and 1200 rpm shaking. The reaction was run for 2 h at 30 °C with 200 rpm shaking. To stop the reaction, 200 µl of ice-cold High Performance Liquid Chromatography (HPLC) grade acetonitrile was added, followed by additional shaking for 5 min to precipitate the proteins. The mixture was kept on ice for 10 min before centrifuging at 16,000xg for 20 min. The supernatants were filtered through 0.45 μm PTFE filters (ThermoFisher Scientific, MA, USA) and filtrate transferred to HPLC vials for onward analysis.
(§3) Using the Agilent HPLC 1200 infinity series, analysis of the PAHs metabolism was conducted. The HPLC conditions consisted of mobile phases of HPLC grade acetonitrile and water in the ratio of 80/20 and detected at a wavelength of 254 nm.

A further series has as its system recombinant CYP6Z3. On the procedure: as §1, §2, §3
A further series concerns CYP9K1. The series is classed as in vitro ADME, An. gambiae. As to conditions: Anopheles gambiae, 2 h, 20 µM, pH 7.4.
Another series has as its system CYP6P4. The series is classed as in vitro ADME, An. gambiae. As to conditions: Anopheles gambiae, 2 h, 20 µM, pH 7.4.
Another series concerns CYP9J5. It counts as in vitro ADME, An. gambiae. Conditions: Anopheles gambiae, 2 h, 20 µM, pH 7.4.
The test system of series [2] is Auyo microsomes. The experiment in a line: Microsomal P450 activity with model probe substrate DEF, Auyo. It counts as biochemical, Anopheles coluzzii. As to conditions: 10 µM DEF, 0.05 µM P450, read for 15 min. On the procedure: (§4) P450 activity was determined in the prepared microsomes from both Auyo and Ngousso strains using diethoxyfluorescein (DEF) as the model fluorogenic substrate using the methods earlier described. Briefly, the enzyme-buffer mix consisted of 0.05 µM of cytochrome P450 (microsomes), 50 mM potassium phosphate buffer, pH 7.4, 0.5 µM cytochrome b5 and 10 µM DEF. To initiate the reactions in a 96-well plates (Thermo Labsystems, Basingstoke, UK), a NADPH ([…]) regeneration mix (consisting of 1mM glucose-6-phosphate, 0.1 M NADP+, 0.25mM magnesium chloride, IU/ml glucose-6-phosphate dehydrogenase and 50 mM potassium phosphate buffer pH 7.4) was added in the positive replicates whereas the same buffer with no NADPH was added in the negative wells. Using the excitation (482 nm) and emission (520 nm) wavelengths of DEF, the […] was read for 15 min, and the relative fluorescence unit per min per picomole of the P450 (RFU/min/pmol of P450) was determined.

Another series relates to Ngousso microsomes. The series can be described thus: Microsomal P450 activity with model probe substrate DEF, Ngousso. Conditions: 10 µM DEF, 0.05 µM P450, read for 15 min. The series is classed as biochemical, Anopheles coluzzii. The protocol: as §4
For series [3], the system named is microsomes prepared from pyrethroid-resistant Anopheles coluzzii (Auyo). Conditions: Auyo (field-resistant) larval microsomes, 0.05 µM P450, 20 µM PAH, 2 h, 30 °C, +NADPH vs -NADPH, mean ± SD of three replicates. The protocol:
as §2, with “The supernatants were filtered through 0.45 μm PTFE filters (ThermoFisher Scientific, MA, USA) and filtrate transferred to HPLC vials for onward analysis.” left out
as §3

Another series has as its system recombinant CYP6P3. Conditions: recombinant CYP6P3, 0.05 µM P450, 20 µM PAH, 2 h, 30 °C, +NADPH vs -NADPH. On the procedure: as §1, §2, §3
Series [4] deals with all the recombinant P450s used in this study (CYPs 6M2, 6Z2, 6Z3, 9J5, 6P3, 6P4, 6P5, CYP9K1, CYP6P9a). The experiment in a line: In vitro metabolism of PAHs with the whole recombinant P450 panel. It counts as in vitro ADME, An. gambiae / An. funestus. Conditions: Anopheles gambiae; Anopheles funestus (CYP6P9a), 2 h, 20 µM, pH 7.4.
Method: (§5) To compare the metabolic activity of the microsomes and the recombinant cytochrome P450s towards PAH metabolism assays were conducted side by side as described earlier [38, 43]. The NADPH regeneration mixture (consisting of 0.1 M NADP+, 50mM potassium phosphate buffer, pH 7.4, 1 mM glucose-6-phosphate, 0.25 mM magnesium chloride and 1U/ml glucose-6-phosphate dehydrogenase) was used in the positive replicates. For the negatives, the same buffer with no added NADP + was used. Enzyme-buffer mix comprised of 0.05 µM recombinant P450 or microsome, 0.4 µM cytochrome b5, 50 mM potassium phosphate buffer pH 7.4 and 20 µM of the PAH substrates. To initiate the reactions, regeneration mixture was added to the enzyme-buffer mix in a 1:1 ratio (total of 200 µl) following activation for 5 min at 30 °C and 1200 rpm shaking. The reaction was run for 2 h at 30 °C with 200 rpm shaking. […]
(§6) Using the Agilent HPLC 1200 infinity series, analysis of the PAHs metabolism was conducted. The HPLC conditions consisted of mobile phases of HPLC grade acetonitrile and water in the ratio of 80/20 and detected at a wavelength of 254 nm. […] Percentage depletions for each compound were calculated in both the microsomal and recombinant P450 studies. […]

Method for CYP6P4: as §5, §6
Method for CYP9J5: as §5, §6

For `c1ccc2c(c1)Cc1ccccc1-2` [fluorene], in the series on Auyo microsomes [1], the Turnover is 37.016 min⁻¹ and 37.02 min⁻¹. The Km – broadly, the substrate concentration at which the rate is half of its maximum – at 30 min in the series with Auyo microsomal P450 (Anopheles coluzzii) is 58.7 µM. For the same compound, the “Catalytic rate (Kcat)” value in the series with Auyo microsomal P450 (Auyo microsomes, 0.05 µM microsomal P450, 30 min, fluorene 0–600 µM) is 4.196 min⁻¹ and 4.20 ± 0.44 min⁻¹. Besides, the catalytic efficiency in the series on Auyo microsomal P450 (Auyo microsomes, fluorene) came out at 0.0715 ± 0.026 min⁻¹ µM⁻¹. For the same compound, the “metabolic activity (in words)” value in the series on recombinant CYP6Z2 and in the series with recombinant CYP6Z3 was “strong metabolic activity” throughout. The percentage depletion in the series with CYP9K1 is listed as 8.5%; in the series on CYP6P4, 9.3%; in the series with CYP9J5, 7.7%.
For the compound `CCOc1ccc2c(c1)Oc1cc(OCC)ccc1C21OC(=O)c2ccccc21` [DEF, diethoxyfluorescein], the DEF activity was 4.9 RFU/min/pmole P450 with Auyo microsomes [2] and 4.4 RFU/min/pmole P450 in the series on Ngousso microsomes.
For `c1ccc2c(c1)-c1cccc3cccc-2c13` [fluoranthene], the figures for the percentage depletion (in series [3]; in the series on recombinant CYP6P3) were 22.8 ± 5.2% and “more than 40%”, respectively. Also, the “metabolic activity (in words)” value with recombinant CYP6Z2 (recombinant CYP6Z2) and in the series with recombinant CYP6Z3 (recombinant CYP6Z3) was “strong metabolic activity” each time.
On to `c1ccc2ccccc2c1` [naphthalene], for which, in [4], the percentage depletion was under 10%.
